Results from US8895069B2, “Drug delivery system using hyaluronic acid-peptide conjugate micelle” (Postech Academy-Industry Foundation, priority 2011, dated 2014).
Ends that are not written are not given here.

Experiments:
retinal blood vessel = assay: Electron microscopy of retinal blood vessel in diabetic retinopathy; format: in vivo, Sprague Dawley (SD) male rats; details: diabetic retinopathy rats
lung inflammation = assay: Bronchoalveolar lavage (BAL) cellularity in OVA/LPS asthma model; format: in vivo, BALB/c mice; details: intranasal
Description: As the laboratory mouse, BALB/c mice (female, 6 week old, 5 per each group) were used. Five groups consisted of a normal control group (PBS-PBS: wherein asthma was not induced and the mice were treated with PBS), a negative control group (OVA/LPS10-OVA: wherein asthma was induced by using OVA and LPS, and the mice were treated with PBS only), a hyaluronic acid test group, an anti-Flt1 peptide (GGNQWFI) (SEQ ID NO: 3) test group, and a test group of the hyaluronic acid-peptide conjugate obtained from Preparation Example 3. The dose of the hyaluronic acid-peptide conjugate was changed between 10 […].
First, in order to make a mouse asthma model, each mouse was sensitized by intranasal administration of 75 μg of ovalbumin (OVA) (Calbiochem, La Jolla, Calif.) and 10 μg of lipopolysaccharide (LPS) (Calbiochem, La Jolla, Calif.) on 0 day, the first day, the second day, and the 7th day. Then, OVA (50 ug/head), hyaluronic acid (500 μg/head), anti-Flt1 peptide (GGNQWFI) (SEQ ID NO: 3) (10, 30, 100, 300, 1000 μg/head), and the hyaluronic acid-peptide conjugate with a low peptide content prepared from Preparation Example 3 ([…], based on the peptide content) were intranasally administered, respectively, after 14 days, 15 days, 21 days, 22 days to challenge. […]

[1] = test system: vascular hyperpermeability due to diabetic retinopathy; assay: Vascular hyperpermeability due to diabetic retinopathy, genistein-loaded micelle (Experimental Example 14); format: in vivo, Sprague Dawley (SD) male rats; details: normal = 1, negative control 2.54±0.20; Avastin 10 mg/ml; micelle 3.2 mg/ml peptide; four weeks after streptozotocin
Description: First, each rat was injected intraperitonially with 60 mg/kg of streptozotocin dissolved in 10 mM citrate buffer at pH 4.5 in order for diabetes to be induced. In three days after the injection of streptozotocin, the rat was determined to develop diabetes when its serum concentration of glucose was at least 300 mg/dL. In a week after the injection of streptozotocin, 10 μL of each sample solution was injected into the vitroeus body.

[2] = test system: corneal neovascularization; assay: Corneal neovascularization, genistein-loaded micelle (Experimental Example 13); format: in vivo, Albino Sprague Dawley male rats; details: rat cornea; samples in PBS: Avastin 10 mg/ml, conjugate and micelle 3.2 mg/ml peptide; control group 86%

Substance	structure of the retinal blood vessel (electron microscope) (retinal blood vessel)	bronchoalveolar lavage (BAL) cellularity (lung inflammation; 1000 μg/head)	bronchoalveolar lavage (BAL) cellularity, dose dependence (lung inflammation; 10-1000 per head based on peptide content)	average intensity of the fluorescence of retina relative to normal group (1) [1]	average ratio of the neovascular area [2]
GGNQWFI [anti-Flt1 peptide, GGNQWFI]	the blood vessel had a rounded shape although the endothelial cell layer was thin	–	–	–	–
HA-GGNQWFI: hyaluronic acid (MW 100 kDa) conjugated with GGNQWFI, 20 peptides per one molecule of HA-TBA (also: conjugated to hyaluronic acid, about 20 peptides per HA)	–	less than half of the cellularity in the negative control group	sharply decreased and was found to be dose-dependent	1.58±0.17	30%
